Measured values as given in ChEMBL document CHEMBL3885881, “DrugMatrix”.

Species on record: Rattus norvegicus
Assay: DrugMatrix - Regimen: Daily Repeat
Format: toxicity, organism-based, Sprague-Dawley
Parameters: regimen Daily Repeat, gender Male, age 6-8 weeks
Conditions: in vivo, po, route oral GAVAGE, […]; for ABSOLUTE BASOPHIL / ABSOLUTE EOSINOPHIL / ABSOLUTE LYMPHOCYTE / ABSOLUTE MONOCYTE / ABSOLUTE SEGMENTED NEUTROPHIL / BASOPHIL / EOSINOPHIL / ERYTHROCYTE COUNT / HEMATOCRIT / HEMOGLOBIN / LEUKOCYTE COUNT / LYMPHOCYTE / MEAN CORPUSCULAR HEMOGLOBIN / MEAN CORPUSCULAR HEMOGLOBIN CONCENTRATION / MEAN CORPUSCULAR VOLUME / MONOCYTE / NEUTROPHIL / NUCLEATED RED BLOOD CELLS / PLATELET COUNT: tissue Blood; for ALANINE AMINOTRANSFERASE / ALBUMIN / ALKALINE PHOSPHATASE / ASPARTATE AMINOTRANSFERASE / BLOOD UREA NITROGEN / CARBON DIOXIDE / CHLORIDE / CHOLESTEROL / CREATINE PHOSPHOKINASE / CREATININE / GLUCOSE / LACTATE DEHYDROGENASE / LIPASE / POTASSIUM / SODIUM / TOTAL BILIRUBIN / TOTAL PROTEIN / URIC ACID: tissue Plasma
[1] = 0 mg/kg, 72 h, dose level Control, time 3 day
[2] = 0 mg/kg, 120 h, dose level Control, time 5 day
[3] = 3 mg/kg, 72 h, dose level Low, time 3 day
[4] = 3 mg/kg, 120 h, dose level Low, time 5 day

Compound: CCc1ccc(CCOc2ccc(CC3SC(=O)NC3=O)cc2)nc1 (configuration not stated) [PIOGLITAZONE]
- ABSOLUTE BASOPHIL [1]: 0 CELLS/uL
- ABSOLUTE EOSINOPHIL [1]: 22.83 CELLS/uL
- ABSOLUTE LYMPHOCYTE [1]: 11213.33 CELLS/uL
- ABSOLUTE MONOCYTE [1]: 169.83 CELLS/uL
- ABSOLUTE SEGMENTED NEUTROPHIL [1]: 960.67 CELLS/uL
- BASOPHIL [1]: 0%
- EOSINOPHIL [1]: 0.17%
- ERYTHROCYTE COUNT [1]: 5.34 x10E6/uL
- HEMATOCRIT [1]: 33.62%
- HEMOGLOBIN [1]: 13.17 G/DL
- LEUKOCYTE COUNT [1]: 12.37 x10E3/uL
- LYMPHOCYTE [1]: 90.33%
- MEAN CORPUSCULAR HEMOGLOBIN [1]: 24.65 pg
- MEAN CORPUSCULAR HEMOGLOBIN CONCENTRATION [1]: 39.18 G/DL
- MEAN CORPUSCULAR VOLUME [1]: 62.95 fL
- MONOCYTE [1]: 1.5%
- NEUTROPHIL [1]: 8%
- NUCLEATED RED BLOOD CELLS [1]: 0 /100WBC
- ALANINE AMINOTRANSFERASE [1]: 56.67 u/L
- ALBUMIN [1]: 4.55 G/DL
- ALKALINE PHOSPHATASE [1]: 305.17 u/L
- ASPARTATE AMINOTRANSFERASE [1]: 96.5 u/L
- BLOOD UREA NITROGEN [1]: 13.5 mg/dL
- CARBON DIOXIDE [1]: 31 mmol/L
- CHLORIDE [1]: 101.67 MEQ/L
- CHOLESTEROL [1]: 75.83 mg/dL
- CREATINE PHOSPHOKINASE [1]: 345.67 u/L
- CREATININE [1]: 0.28 mg/dL
- GLUCOSE [1]: 142.5 mg/dL
- LACTATE DEHYDROGENASE [1]: 136.67 u/L
- LIPASE [1]: 10.17 u/L
- POTASSIUM [1]: 5.41 MEQ/L
- SODIUM [1]: 146.7 MEQ/L
- TOTAL BILIRUBIN [1]: 0.13 mg/dL
- TOTAL PROTEIN [1]: 6.65 G/DL
- URIC ACID [1]: 0.77 mg/dL
- ABSOLUTE BASOPHIL [2]: 0 CELLS/uL
- ABSOLUTE EOSINOPHIL [2]: 26.33 CELLS/uL
- ABSOLUTE LYMPHOCYTE [2]: 10004.33 CELLS/uL
- ABSOLUTE MONOCYTE [2]: 141.33 CELLS/uL
- ABSOLUTE SEGMENTED NEUTROPHIL [2]: 1161.33 CELLS/uL
- BASOPHIL [2]: 0%
- EOSINOPHIL [2]: 0.33%
- ERYTHROCYTE COUNT [2]: 5.5 x10E6/uL
- HEMATOCRIT [2]: 34.8%
- HEMOGLOBIN [2]: 13.17 G/DL
- LEUKOCYTE COUNT [2]: 11.33 x10E3/uL
- LYMPHOCYTE [2]: 87.83%
- MEAN CORPUSCULAR HEMOGLOBIN [2]: 23.95 pg
- MEAN CORPUSCULAR HEMOGLOBIN CONCENTRATION [2]: 37.83 G/DL
- MEAN CORPUSCULAR VOLUME [2]: 63.28 fL
- MONOCYTE [2]: 1.17%
- NEUTROPHIL [2]: 10.67%
- NUCLEATED RED BLOOD CELLS [2]: 0 /100WBC
- PLATELET COUNT [2]: 1035.33 x10E3/uL
- ALANINE AMINOTRANSFERASE [2]: 36 u/L
- ALBUMIN [2]: 4.63 G/DL
- ALKALINE PHOSPHATASE [2]: 266.33 u/L
- ASPARTATE AMINOTRANSFERASE [2]: 71.67 u/L
- BLOOD UREA NITROGEN [2]: 11.33 mg/dL
- CARBON DIOXIDE [2]: 30.17 mmol/L
- CHLORIDE [2]: 100.83 MEQ/L
- CHOLESTEROL [2]: 70.33 mg/dL
- CREATINE PHOSPHOKINASE [2]: 226.17 u/L
- CREATININE [2]: 0.27 mg/dL
- GLUCOSE [2]: 147.83 mg/dL
- LACTATE DEHYDROGENASE [2]: 111.67 u/L
- LIPASE [2]: 8 u/L
- POTASSIUM [2]: 5.14 MEQ/L
- SODIUM [2]: 145.48 MEQ/L
- TOTAL BILIRUBIN [2]: 0.1 mg/dL
- TOTAL PROTEIN [2]: 6.53 G/DL
- URIC ACID [2]: 0.52 mg/dL
- ABSOLUTE BASOPHIL [3]: 0 CELLS/uL
- ABSOLUTE EOSINOPHIL [3]: 196.67 CELLS/uL
- ABSOLUTE LYMPHOCYTE [3]: 13366 CELLS/uL
- ABSOLUTE MONOCYTE [3]: 155.33 CELLS/uL
- ABSOLUTE SEGMENTED NEUTROPHIL [3]: 1182 CELLS/uL
- BASOPHIL [3]: 0%
- EOSINOPHIL [3]: 1.33%
- ERYTHROCYTE COUNT [3]: 5.51 x10E6/uL
- HEMATOCRIT [3]: 35.97%
- HEMOGLOBIN [3]: 13.93 G/DL
- LEUKOCYTE COUNT [3]: 14.9 x10E3/uL
- LYMPHOCYTE [3]: 89.67%
- MEAN CORPUSCULAR HEMOGLOBIN [3]: 25.3 pg
- MEAN CORPUSCULAR HEMOGLOBIN CONCENTRATION [3]: 38.77 G/DL
- MEAN CORPUSCULAR VOLUME [3]: 65.23 fL
- MONOCYTE [3]: 1%
- NEUTROPHIL [3]: 8%
- NUCLEATED RED BLOOD CELLS [3]: 0 /100WBC
- PLATELET COUNT [3]: 1174 x10E3/uL
- ALANINE AMINOTRANSFERASE [3]: 60.33 u/L
- ALBUMIN [3]: 4.03 G/DL
- ALKALINE PHOSPHATASE [3]: 427.33 u/L
- ASPARTATE AMINOTRANSFERASE [3]: 94.33 u/L
- BLOOD UREA NITROGEN [3]: 8.67 mg/dL
- CARBON DIOXIDE [3]: 32.67 mmol/L
- CHLORIDE [3]: 103.67 MEQ/L
- CHOLESTEROL [3]: 64.67 mg/dL
- CREATINE PHOSPHOKINASE [3]: 625.67 u/L
- CREATININE [3]: 0.22 mg/dL
- GLUCOSE [3]: 155.67 mg/dL
- LACTATE DEHYDROGENASE [3]: 125.67 u/L
- LIPASE [3]: 12.33 u/L
- POTASSIUM [3]: 6.21 MEQ/L
- SODIUM [3]: 145.77 MEQ/L
- TOTAL BILIRUBIN [3]: 0.13 mg/dL
- TOTAL PROTEIN [3]: 5.33 G/DL
- URIC ACID [3]: 1.63 mg/dL
- ABSOLUTE BASOPHIL [4]: 0 CELLS/uL
- ABSOLUTE EOSINOPHIL [4]: 37 CELLS/uL
- ABSOLUTE LYMPHOCYTE [4]: 11883.67 CELLS/uL
- ABSOLUTE MONOCYTE [4]: 95.33 CELLS/uL
- ABSOLUTE SEGMENTED NEUTROPHIL [4]: 1150.67 CELLS/uL
- BASOPHIL [4]: 0%
- EOSINOPHIL [4]: 0.33%
- ERYTHROCYTE COUNT [4]: 5.61 x10E6/uL
- HEMATOCRIT [4]: 36.33%
- HEMOGLOBIN [4]: 14.47 G/DL
- LEUKOCYTE COUNT [4]: 13.17 x10E3/uL
- LYMPHOCYTE [4]: 90.33%
- MEAN CORPUSCULAR HEMOGLOBIN [4]: 25.8 pg
- MEAN CORPUSCULAR HEMOGLOBIN CONCENTRATION [4]: 39.83 G/DL
- MEAN CORPUSCULAR VOLUME [4]: 64.8 fL
- MONOCYTE [4]: 0.67%
- NEUTROPHIL [4]: 8.67%
- NUCLEATED RED BLOOD CELLS [4]: 0 /100WBC
- PLATELET COUNT [4]: 1242.33 x10E3/uL
- ALANINE AMINOTRANSFERASE [4]: 58.33 u/L
- ALBUMIN [4]: 4.03 G/DL
- ALKALINE PHOSPHATASE [4]: 346.67 u/L
- ASPARTATE AMINOTRANSFERASE [4]: 87.67 u/L
- BLOOD UREA NITROGEN [4]: 13 mg/dL
- CARBON DIOXIDE [4]: 30.67 mmol/L
- CHLORIDE [4]: 101 MEQ/L
- CHOLESTEROL [4]: 64.67 mg/dL
- CREATINE PHOSPHOKINASE [4]: 464 u/L
- CREATININE [4]: 0.13 mg/dL
- GLUCOSE [4]: 150.33 mg/dL
- LACTATE DEHYDROGENASE [4]: 542.33 u/L
- LIPASE [4]: 11.33 u/L
- POTASSIUM [4]: 6.64 MEQ/L
- SODIUM [4]: 142.57 MEQ/L
- TOTAL BILIRUBIN [4]: 0.2 mg/dL
- TOTAL PROTEIN [4]: 5.7 G/DL
- URIC ACID [4]: 1.57 mg/dL
